# Data taken from ChEMBL document CHEMBL1201862, “PubChem BioAssay data set” (2004).
# The source made the active and inactive calls.
# Key:
# [1] = target: T1, Replicative DNA helicase DnaB (Mycobacterium tuberculosis, UniProt P9WMR3); assay: DnaB intein splicing inhibitors, dose response, biochemical, cell-free fluorescence (AID 449749); format: functional
# T1 sequence (P9WMR3 whole entry): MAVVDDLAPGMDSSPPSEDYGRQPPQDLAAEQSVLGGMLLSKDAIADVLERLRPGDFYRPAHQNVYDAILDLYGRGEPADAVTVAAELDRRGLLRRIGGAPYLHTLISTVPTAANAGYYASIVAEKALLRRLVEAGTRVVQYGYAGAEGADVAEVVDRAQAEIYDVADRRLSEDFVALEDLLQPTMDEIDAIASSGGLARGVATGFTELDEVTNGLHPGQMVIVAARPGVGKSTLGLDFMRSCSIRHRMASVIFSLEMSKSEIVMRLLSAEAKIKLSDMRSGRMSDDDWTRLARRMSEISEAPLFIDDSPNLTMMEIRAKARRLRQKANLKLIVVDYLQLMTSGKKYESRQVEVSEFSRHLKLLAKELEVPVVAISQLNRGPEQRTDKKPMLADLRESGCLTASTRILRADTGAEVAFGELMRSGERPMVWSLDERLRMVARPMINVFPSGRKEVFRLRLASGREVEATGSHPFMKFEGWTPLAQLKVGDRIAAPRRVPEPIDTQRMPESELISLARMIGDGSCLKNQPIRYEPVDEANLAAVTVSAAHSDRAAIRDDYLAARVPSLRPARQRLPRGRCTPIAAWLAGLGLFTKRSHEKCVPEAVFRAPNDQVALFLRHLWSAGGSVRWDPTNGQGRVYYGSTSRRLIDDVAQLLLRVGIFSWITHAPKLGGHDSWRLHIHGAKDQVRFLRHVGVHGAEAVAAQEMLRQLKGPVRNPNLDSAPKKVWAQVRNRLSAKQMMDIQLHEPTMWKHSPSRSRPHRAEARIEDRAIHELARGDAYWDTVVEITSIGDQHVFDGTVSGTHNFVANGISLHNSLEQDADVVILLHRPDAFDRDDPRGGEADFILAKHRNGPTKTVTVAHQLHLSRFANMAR
# [2] = decrease of insulin promoter-GFP reporter – imaging, high-content screening, mouse beta cells (AID 1628); format: functional; conditions: MIN6
# [3] = tested on: Streptococcus sp. 'group A'; assay: Streptococcus pyogenes SK(-)GAS viability under kanamycin – luminescence, BacTiterGlo, confirmation, counter-screen for streptokinase expression inhibitor project, dose response (AID 1900); format: functional, organism-based
# Streptokinase A = target: T2, Streptokinase A (Streptococcus pyogenes serotype M1, UniProt P10520); assay: viability-normalized secreted streptokinase activity reduction – plasminogen activation absorbance, OD405, dose response (AID 1914); format: functional, Streptococcus pyogenes M1 GAS;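 further: secreted streptokinase activity via plasminogen activation per viability signal from cell pellet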
# T2 sequence (P10520 whole entry): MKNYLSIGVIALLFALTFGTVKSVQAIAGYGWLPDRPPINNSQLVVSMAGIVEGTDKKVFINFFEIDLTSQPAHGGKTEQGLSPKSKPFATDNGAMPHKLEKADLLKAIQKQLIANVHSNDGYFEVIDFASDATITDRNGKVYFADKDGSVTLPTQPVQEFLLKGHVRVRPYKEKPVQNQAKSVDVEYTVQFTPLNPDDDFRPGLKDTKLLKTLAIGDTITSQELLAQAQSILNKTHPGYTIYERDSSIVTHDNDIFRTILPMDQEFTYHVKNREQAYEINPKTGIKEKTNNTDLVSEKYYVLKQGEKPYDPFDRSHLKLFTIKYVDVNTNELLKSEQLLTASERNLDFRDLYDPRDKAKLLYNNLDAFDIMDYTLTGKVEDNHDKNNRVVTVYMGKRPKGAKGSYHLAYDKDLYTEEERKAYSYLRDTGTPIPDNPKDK
# [4] = MIN6 cell viability loss – mouse insulinoma, cytotoxicity control, dose response (AID 2122); format: functional;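 further: confirmatory high-throughput counterscreen run to flag cytotoxic compounds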
compound,measurement,setting,value
COc1ccc(C(=O)c2c(C(F)(F)F)oc3c2C(=O)c2ccccc2C3=O)cc1,AC50,[1],164 nM (active)
same,IC50,[2],3050 nM (active)
same,EC50,[3],2260 nM (active)
same,EC50,Streptokinase A,> 150000 nM (not active)
same,IC50,[4],2390 nM (active)
